Test results: patent US5670527A, “Pyridyl imidazole compounds and compositions” (SmithKline Beecham Corporation, priority 1995, dated 1997)

tested on: human PGHS-2 protein expression in LPS stimulated human monocytes; experiment: Prostoglandin endoperoxide synthase-2 (PGHS-2) assay; assay type: cell-based; conditions: rank order potency similar to that for inhibiting cytokine production
Description: The followiong assay describes a method for determining the inhibitory effects of compounds of Formula (I) on human PGHS-2 protein expression in LPS stimulated human monocytes
Human peripheal blood monocytes were isolated from buffy coats by centrifugation through Ficoll and Percoll gradients. Cells were seeded at 2×10^6 /well in 24 well plates and allowed to adhere for 1 hour in RPMI supplemented with 1% human AB serum, 20 mM L-glutamine, Penicillin-Streptomycin and 10 mM HEPES. Compounds were added at various concentrations and incubated at 37° C. for 10 minutes. LPS was added at 50 ng/well (to induce enzyme expression) and incubated overnight at 37° C. The supernatant was removed and cells washed once in cold PBS. The cells were lysed in 100 μl of cold lysis buffer(50 mM Tris/HCl pH 7.5, 150 mM NaCl, 1% NP40, 0.5% sodium deoxycholate, 0.1% SDS, 300 ug/ml DNAse, 0.1% TRITON X-100, 1 mM PMSF, 1 mM leupeptin, 1 mM pepstatin). The lysate was centrifuged (10;000×g for 10 min. at 4° C.) to remove debris and the soluble fraction was subjected to SDS PAGE. analysis (12% gel). Protein separated on the gel were transferred onto nitrocellulose membrane by electrophoretic means for 2 hours at 60 volts. The membrane was pretreated for one hour in PBS/0.1% Tween 20 with 5% non-fat dry milk. After washing 3 times in PBS/Tween buffer, the membrane was incubated with a 1:2000 dilution of a monospecific antiserum to PGHS-2 or a 1:1000 dilution of an antiserum to PGHs-1 in PBS/Tween with 1% BSA for one hour with continuous shaking. […] The membrane was then washed 3× in PBS/Tween and the ECL immunodetection system (Amersham) was used to detect the level of expression of prostaglandin endoperoxide synthases-2.

Row | SMILES | inhibition of LPS induced PGHS-2 protein expression
1 | Fc1ccc(-c2ncn(CCCN3CCOCC3)c2-c2ccncc2)cc1 [Example 1, 1-[3-(4-Morpholinyl)propyl]-4-(4-fluorophenyl)-5-(4-pyridyl)imidazole] | active
2 | Fc1ccc(-c2nc3n(c2-c2ccncc2)CCS3)cc1 [6-(4-Fluorophenyl)-2,3-dihydro-5-(4-pyridinyl)imidazo [2,1-b]thiazole] | active
3 | C[C@@H]1C[C@H]2[C@@H]3CCC4=CC(=O)C=C[C@]4(C)[C@@]3(F)[C@@H](O)C[C@]2(C)[C@@]1(O)C(=O)CO [Dexamethasone] | active

same assay, conditions: up to 10 uM

Row | SMILES | inhibition of LPS induced PGHS-2 protein expression
4 | CC(Cc1ccc(O)c(O)c1)C(C)Cc1ccc(O)c(O)c1 (stereo not shown) [NDGA] | inactive
5 | C[S+]([O-])c1ccc(-c2nc3n(c2-c2ccncc2)CCC3)cc1 (stereo not shown) [2-(4-Methylsulfinylphenyl)-3-(4-pyridyl)-6-7-dihydro-(5H)-pyrrolo[1,2-a]imidazole] | inactive
6 | COc1ccc(C2CNC(=O)C2)cc1OC1CCCC1 (stereo not shown) [rolipram] | inactive
7 | O=C1CCN(c2ccccc2)N1 [phenidone] | inactive
